Results as given in ChEMBL document CHEMBL3044825, “Synthesis and in vitro microbial activities of amides of pyridoquinolone” (2011).

Legend:
Assay type in all cases: functional
Details in all cases: read-out: IZ
Candida albicans = assay: Antifungal activity against Candida albicans at 100 ug/ml by cup-plate method
Pseudomonas aeruginosa = assay: Antibacterial activity against Pseudomonas aeruginosa at 100 ug/ml by cup-plate method
Bacillus subtilis = assay: Antibacterial activity against Bacillus subtilis at 100 ug/ml by cup plate method
Escherichia coli = assay: Antibacterial activity against Escherichia coli at 100 ug/ml by cup-plate method
Staphylococcus aureus = assay: Antibacterial activity against Staphylococcus aureus at 100 ug/ml by cup-plate method

SMILES	zone of inhibition at 100 µg/mL (Candida albicans) [mm]	zone of inhibition at 100 µg/mL (Pseudomonas aeruginosa) [mm]	zone of inhibition at 100 µg/mL (Bacillus subtilis) [mm]	zone of inhibition at 100 µg/mL (Escherichia coli) [mm]	zone of inhibition at 100 µg/mL (Staphylococcus aureus) [mm]
Cc1ccc(NS(=O)(=O)c2ccc(NC(=O)c3cn(CCO)c4c(cc(O)c5ncccc54)c3=O)cc2)cc1	0	0	6	5	5
O=C(NC(=S)Nc1ccccc1[N+](=O)[O-])c1cn(CCO)c2c(cc(O)c3ncccc32)c1=O	1	4	5	5	0
O=C(NC(=S)Nc1cccc([N+](=O)[O-])c1)c1cn(CCO)c2c(cc(O)c3ncccc32)c1=O	0	10	7	9	7
Cc1ccccc1NC(=S)NC(=O)c1cn(CCO)c2c(cc(O)c3ncccc32)c1=O	0	0	7	6	5
Cc1ccc(NC(=S)NC(=O)c2cn(CCO)c3c(cc(O)c4ncccc43)c2=O)cc1	1	4	6	6	0
O=C(NC(=S)Nc1cccc(O)c1)c1cn(CCO)c2c(cc(Cl)c3ncccc32)c1=O	2	6	9	8	8
COc1ccccc1NC(=S)NC(=O)c1cn(CCO)c2c(cc(Cl)c3ncccc32)c1=O	0	3	6	5	0
COc1ccc(NC(=S)NC(=O)c2cn(CCO)c3c(cc(Cl)c4ncccc43)c2=O)cc1	2	6	9	8	8
O=C(NC(=S)Nc1cccc([N+](=O)[O-])c1)c1cn(CCO)c2c(cc(Cl)c3ncccc32)c1=O	1	8	6	0	8
Cc1ccc(NC(=S)NC(=O)c2cn(CCO)c3c(cc(Cl)c4ncccc43)c2=O)cc1	0	0	6	6	6
O=C(NC(=S)Nc1ccc(O)cc1)c1cn(CCO)c2c(cc(O)c3ncccc32)c1=O	0	6	7	6	6
COc1ccccc1NC(=S)NC(=O)c1cn(CCO)c2c(cc(O)c3ncccc32)c1=O	0	4	0	0	4
Cc1ccc(NS(=O)(=O)c2ccc(NC(=O)c3cn(CCO)c4c(cc(Cl)c5ncccc54)c3=O)cc2)cc1	1	7	6	5	5
N#Cc1cc([N+](=O)[O-])ccc1NS(=O)(=O)c1ccc(NC(=O)c2cn(CCO)c3c(cc(Cl)c4ncccc43)c2=O)cc1	2	8	9	8	8
O=C(Nc1ccc(S(=O)(=O)Nc2ccc(Cl)cc2)cc1)c1cn(CCO)c2c(cc(O)c3ncccc32)c1=O	0	4	6	4	0
COc1ccccc1NS(=O)(=O)c1ccc(NC(=O)c2cn(CCO)c3c(cc(O)c4ncccc43)c2=O)cc1	1	6	8	0	6
O=C(Nc1ccc(S(=O)(=O)Nc2cccc([N+](=O)[O-])c2)cc1)c1cn(CCO)c2c(cc(O)c3ncccc32)c1=O	2	7	8	8	8

SMILES	zone of inhibition at 100 µg/mL (Candida albicans) [mm]	zone of inhibition at 100 µg/mL (Pseudomonas aeruginosa) [mm]	zone of inhibition at 100 µg/mL (Bacillus subtilis) [mm]	zone of inhibition at 100 µg/mL (Escherichia coli) [mm]	zone of inhibition at 100 µg/mL (Staphylococcus aureus) [mm]
Cc1ccccc1NS(=O)(=O)c1ccc(NC(=O)c2cn(CCO)c3c(cc(O)c4ncccc43)c2=O)cc1	0	4	6	0	4
N#Cc1cc([N+](=O)[O-])ccc1NS(=O)(=O)c1ccc(NC(=O)c2cn(CCO)c3c(cc(O)c4ncccc43)c2=O)cc1	2	8	6	6	8
O=C(Nc1cccc([N+](=O)[O-])c1)c1cn(CCO)c2c(cc(O)c3ncccc32)c1=O	2	10	8	8	7
O=C(Nc1ccc([N+](=O)[O-])cc1)c1cn(CCO)c2c(cc(O)c3ncccc32)c1=O	0	6	7	6	8
Cc1cccc(NC(=O)c2cn(CCO)c3c(cc(O)c4ncccc43)c2=O)c1	1	6	6	0	5
Cc1ccc(C)c(NC(=O)c2cn(CCO)c3c(cc(O)c4ncccc43)c2=O)c1	2	8	9	9	8
O=C(Nc1ccc(S(=O)(=O)Nc2ccccc2)cc1)c1cn(CCO)c2c(cc(Cl)c3ncccc32)c1=O	2	7	10	6	8
O=C(Nc1ccc(S(=O)(=O)Nc2ccc(Cl)cc2)cc1)c1cn(CCO)c2c(cc(Cl)c3ncccc32)c1=O	1	0	7	8	6
O=C(Nc1ccc(S(=O)(=O)Nc2cccc([N+](=O)[O-])c2)cc1)c1cn(CCO)c2c(cc(Cl)c3ncccc32)c1=O	2	5	8	7	6
Cc1cccc(NS(=O)(=O)c2ccc(NC(=O)c3cn(CCO)c4c(cc(Cl)c5ncccc54)c3=O)cc2)c1	0	4	6	0	0
COc1ccc(NC(=O)c2cn(CCO)c3c(cc(Cl)c4ncccc43)c2=O)cc1	2	6	6	0	6
Cc1ccccc1NC(=O)c1cn(CCO)c2c(cc(Cl)c3ncccc32)c1=O	0	4	5	7	0
Cc1ccc(NC(=O)c2cn(CCO)c3c(cc(Cl)c4ncccc43)c2=O)cc1	0	5	7	4	5
Cc1ccc(C)c(NC(=O)c2cn(CCO)c3c(cc(Cl)c4ncccc43)c2=O)c1	0	8	9	10	8
O=C(Nc1ccccc1)c1cn(CCO)c2c(cc(O)c3ncccc32)c1=O	1	8	6	8	7
O=C(Nc1cccc(Cl)c1)c1cn(CCO)c2c(cc(O)c3ncccc32)c1=O	0	4	6	4	0
COc1ccccc1NC(=O)c1cn(CCO)c2c(cc(O)c3ncccc32)c1=O	1	0	8	6	6
